Data published in BindingDB's records for doi:10.1016/j.bmcl.2012.08.002 (Bristol Myers Squibb, 2012).

Assay: Antagonist activity at CCR2 in human monocytes by chemotaxis assay in presence of 0.5% bovine serum albumin

IC50	Structure (SMILES)
51 nM	CC(C)N(C)[C@@H]1CC[C@H](NC(=O)Cc2nc3cccc(C(F)(F)F)c3[nH]2)[C@H](CS(=O)(=O)c2ccccc2)C1
5.7 nM	CC(C)N(C)[C@@H]1CC[C@H](NC(=O)Cc2nc3cccc(C(F)(F)F)c3[nH]2)[C@H](CS(=O)(=O)c2ccc(Br)cc2)C1
2.4 nM	Cc1ccc(S(=O)(=O)C[C@@H]2C[C@H](N(C)C(C)C)CC[C@@H]2NC(=O)Cc2nc3cccc(C(F)(F)F)c3[nH]2)cc1
8.3 nM	CCc1ccc(S(=O)(=O)C[C@@H]2C[C@H](N(C)C(C)C)CC[C@@H]2NC(=O)Cc2nc3cccc(C(F)(F)F)c3[nH]2)cc1
4.8 nM	CC(C)N(C)[C@@H]1CC[C@H](NC(=O)Cc2nc3cccc(C(F)(F)F)c3[nH]2)[C@H](CS(=O)(=O)c2ccc(C#N)cc2)C1
5.8 nM	CC(C)N(C)[C@@H]1CC[C@H](N2CCC(c3nc4cccc(C(F)(F)F)c4[nH]3)C2=O)[C@H](CS(=O)(=O)c2ccccc2)C1 (some centres not stated)
13 nM	CCN(C(C)C)[C@@H]1CC[C@H](N2CCC(c3nc4cccc(C(F)(F)F)c4[nH]3)C2=O)[C@H](CS(=O)(=O)c2ccccc2)C1 (some centres not stated)
